Data taken from patent publication US20080182859A1 (Curis, Inc., priority 2006, published 2008).
Structures can show the parent of a compound that is named as a salt.

Experiments:
Type in all cases: cell-based
sonic hedgehog pathway [1] = experiment: Hedgehog pathway Gli-luciferase reporter assay, TM3 cells; conditions: TM3 mouse Leydig cells
Method in brief: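 Luminescence read-out of gli-promoter luciferase in stably transfected cells; 11-point 1:3 dose curves, 24 h compound exposure in 0.5% FBS, ± octyl-modified Hh protein 1–5 ng/ml. AMAX as % of plate low/high controls; EC50 from curve; >20% AMAX counted active.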

sonic hedgehog pathway [2] = experiment: Human hedgehog reporter assay HEPM-GliLuc (HGL); conditions: HepM human embryonic palatal mesenchymal cells, Gli-luciferase reporter
Excerpt: Mouse (TM3: mouse Leydig cells; S12: mouse embryonic mesenchymal cells) and human (Daoy: human medulloblastoma cell; HepM: human embryonic palatal mesenchymal cell) cell lines are used to screen small molecules for their ability to modulate the activity of the sonic hedgehog pathway (Table 1, Table 2, and Table 3). Stable hedgehog pathway reporter cell lines are established by specific antibiotic selection following transfection of a reporter plasmid containing a luciferase gene located directly downstream from the gli promoter. Consequently, any observable changes in cellular luciferase activity may be attributed to changes in sonic hedgehog pathway activity in mouse and human cells, respectively, since gli is the major by-product of this pathway. To calculate activity, we generate an eleven point dose curve for each compound using 1:3 dilutions in 96 well assay plates. Each plate tested also contains low and high control to establish maximal pathway activation so to establish/compare a percentage activation of each tested compound (AMAX) on respective plates. Also we calculate EC50 values, or a concentration where the pathway will be exactly 50% activated, for each tested compound to determine potency. In these cell lines, compounds that register >20% AMAX values are considered active.
Stable hedgehog pathway reporter cell lines are established following specific antibiotic selection following transfection of a reporter plasmid In short, typically cells are plated in MicroTiter-plates at 10,000-20,000 cells per well, in growth media (containing 10%-20% FBS). After 48-72 hrs (HGL and DGL respectively) the media in the assay plates is switched to low-serum containing media (0.5% FBS). At that time compounds are added (at 1-5 μM) to the assay plates, in the presence or absence of hedgehog protein (octyl-modified version; 1-5 ng/ml). After another 24 hrs of incubation, the media from the assay plates is discarded and replaced with luciferase assay-mix. Subsequently, plates are incubated at RT for ˜15-30 mins and then read in a luminometer. [note: addition of the Hedgehog protein, although not critical, will sensitize the assay allowing the identification of weak actives].

sonic hedgehog pathway [3] = experiment: Human hedgehog reporter assay Daoy-GliLuc (DGL); conditions: Daoy human medulloblastoma cells, Gli-luciferase reporter; read-out: Daoy Avg. EC50
Method in brief: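 Stable Gli-promoter luciferase reporter lines (human HepM, Daoy; mouse S12) plated at 10,000–20,000 cells/well, switched to 0.5% FBS after 48–72 h, then given compound (1–5 μM; 11-point 1:3 dose curves) with or without octyl-modified hedgehog protein (1–5 ng/ml) for 24 h. Luminescence read; AMAX vs plate controls and EC50 derived.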

EC50 (sonic hedgehog pathway [1]) [nM]	EC50 (sonic hedgehog pathway [3]) [nM]	Structure (SMILES)	EC50 (sonic hedgehog pathway [2]) [nM]
< 50	< 50	CCOc1ccc(-c2ccc(C(C)=O)cc2)cc1CN(C(=O)c1sc2ccccc2c1Cl)[C@H]1CC[C@@H](NC)CC1 [Compound 311, 3-Chloro-benzo[b]thiophene-2-carboxylic acid (4′-acetyl-4-ethoxy-biphenyl-3-ylmethyl)-(4-methylamino-cyclohexyl)-amide hydrochloride]	50 to 250
1000 to 2500	250 to 1000	CCOc1ccc(-c2ccc(NC)nc2)cc1CN(C(=O)c1sc2ccccc2c1Cl)[C@H]1CC[C@H](NC)CC1 [Compound 399, 3-Chloro-benzo[b]thiophene-2-carboxylic acid [2-ethoxy-5-(6-methylamino-pyridin-3-yl)-benzyl]-(4-methylamino-cyclohexyl)-amide dihydrochloride]	1000 to 2500
1000 to 2500	250 to 1000	CNC1CCC(N(Cc2cc(-c3ccc(N)nc3C)ccc2OC)C(=O)c2sc3ccccc3c2Cl)CC1 (stereo not drawn) [Compound 398, 3-Chloro-benzo[b]thiophene-2-carboxylic acid [5-(6-amino-2-methyl-pyridin-3-yl)-2-methoxy-benzyl]-(4-methylamino-cyclohexyl)-amide dihydrochloride]	1000 to 2500
1000 to 2500	50 to 250	CCOc1ccc(-c2cnc(NC)nc2)cc1CN(C(=O)c1sc2ccccc2c1Cl)[C@H]1CC[C@H](NC)CC1 [Compound 402, 3-Chloro-benzo[b]thiophene-2-carboxylic acid [2-ethoxy-5-(2-methylamino-pyrimidin-5-yl)-benzyl]-(4-methylamino-cyclohexyl)-amide dihydrochloride]	250 to 1000
< 50	< 50	CN[C@H]1CC[C@@H](N(Cc2cc(-c3ccc(OC)cc3)ccc2OC)C(=O)c2sc3ccccc3c2Cl)CC1 [Compound 305, 3-Chloro-benzo[b]thiophene-2-carboxylic acid (4,4′-dimethoxy-biphenyl-3-ylmethyl)-(4-methylamino-cyclohexyl)-amide hydrochloride]	250 to 1000
< 50	< 50	CN[C@H]1CC[C@@H](N(Cc2cc(-c3ccc(N(C)C(C)=O)cc3)ccc2OC)C(=O)c2sc3ccccc3c2Cl)CC1 [Compound 318, 3-Chloro-benzo[b]thiophene-2-carboxylic acid [4′-(acetyl-methyl-amino)-4-methoxy-biphenyl-3-ylmethyl]-(4-methylamino-cyclohexyl)-amide hydrochloride]	< 50
< 50	50 to 250	CN[C@H]1CC[C@@H](N(Cc2cc(-c3ccc(N(C)C=O)cc3)ccc2OC)C(=O)c2sc3ccccc3c2Cl)CC1 [Compound 315, 3-Chloro-benzo[b]thiophene-2-carboxylic acid [4′-(formyl-methyl-amino)-4-methoxy-biphenyl-3-ylmethyl]-(4-methylamino-cyclohexyl)-amide trifluoroacetate]	250 to 1000

Second part, the compound before the results:

Structure (SMILES)	EC50 (sonic hedgehog pathway [1]) [nM]	EC50 (sonic hedgehog pathway [3]) [nM]	EC50 (sonic hedgehog pathway [2]) [nM]
CN[C@H]1CC[C@@H](N(Cc2cc(-c3ccc(C(=O)C(F)(F)F)cc3)ccc2OC)C(=O)c2sc3c(F)ccc(F)c3c2Cl)CC1 [Compound 349, 3-Chloro-4,7-difluoro-benzo[b]thiophene-2-carboxylic acid [4-methoxy-4′-(2,2,2-trifluoro-acetyl)-biphenyl-3-ylmethyl]-(4-methylamino-cyclohexyl)-amide trifluoroacetate]	< 50	< 50	< 50
CN[C@H]1CC[C@@H](N(Cc2cc(-c3ccc(N(C)C=O)cc3)ccc2OC)C(=O)c2sc3cccc(F)c3c2Cl)CC1 [Compound 347, 3-Chloro-4-fluoro-benzo[b]thiophene-2-carboxylic acid [4′-(formyl-methyl-amino)-4-methoxy-biphenyl-3-ylmethyl]-(4-methylamino-cyclohexyl)-amide trifluoroacetate]	< 50	< 50	< 50
CN[C@H]1CC[C@@H](N(Cc2cc(-c3cccc(C#N)c3)ccc2OC)C(=O)c2sc3ccccc3c2Cl)CC1 [Compound 304, 3-Chloro-benzo[b]thiophene-2-carboxylic acid (3′-cyano-4-methoxy-biphenyl-3-ylmethyl)-(4-methylamino-cyclohexyl)-amide hydrochloride]	< 50	< 50	< 50
CN[C@H]1CC[C@@H](N(Cc2cc(-c3cc(C)nc(C)c3)ccc2OC)C(=O)c2sc3cccc(F)c3c2Cl)CC1 [Compound 353, 3-Chloro-4-fluoro-benzo[b]thiophene-2-carboxylic acid [5-(2,6-dimethyl-pyridin-4-yl)-2-methoxy-benzyl]-(4-methylamino-cyclohexyl)-amide dihydrochloride]	< 50	50 to 250	50 to 250
CN[C@H]1CC[C@@H](N(Cc2cc(-c3ccnc(N(C)C)c3)ccc2OC)C(=O)c2sc3c(F)ccc(F)c3c2Cl)CC1 [Compound 358, 3-Chloro-4,7-difluoro-benzo[b]thiophene-2-carboxylic acid [5-(2-dimethylamino-pyridin-4-yl)-2-methoxy-benzyl]-(4-methylamino-cyclohexyl)-amide dihydrochloride]	< 50	< 50	< 50
CCOc1ccc(-c2cncnc2)cc1CN(C(=O)c1sc2ccccc2c1Cl)[C@H]1CC[C@@H](NC)CC1 [Compound 326, 3-Chloro-benzo[b]thiophene-2-carboxylic acid (2-ethoxy-5-pyrimidin-5-yl-benzyl)-(4-methylamino-cyclohexyl)-amide dihydrochloride]	50 to 250	< 50	50 to 250
CNC(=O)c1cc(-c2ccc(OC)c(CN(C(=O)c3sc4c(F)ccc(F)c4c3Cl)[C@H]3CC[C@H](NC)CC3)c2)ccn1 [356 (R21), 4-(3-{[(3-Chloro-4,7-difluoro-benzo[b]thiophene-2-carbonyl)-(4-methylamino-cyclohexyl)-amino]-methyl}-4-methoxy-phenyl)-pyridine-2-carboxylic acid methylamide dihydrochloride]	< 50	< 50	< 50
CN[C@H]1CC[C@@H](N(Cc2cc(-c3cc(C)nc(C)c3)ccc2OC)C(=O)c2sc3c(F)ccc(F)c3c2Cl)CC1 [Compound 350, 3-Chloro-4,7-difluoro-benzo[b]thiophene-2-carboxylic acid [5-(2,6-dimethyl-pyridin-4-yl)-2-methoxy-benzyl]-(4-methylamino-cyclohexyl)-amide dihydrochloride]	< 50	< 50	50 to 250
CN[C@H]1CC[C@@H](N(Cc2cc(-c3ccc(N)nc3)ccc2OC)C(=O)c2sc3c(F)ccc(F)c3c2Cl)CC1 [352 (R18)]	< 50	< 50	< 50
CN[C@H]1CC[C@@H](N(Cc2cc(-c3ccc(CCl)cc3)ccc2OC)C(=O)c2sc3ccccc3c2Cl)CC1 [Compound 340, 3-Chloro-benzo[b]thiophene-2-carboxylic acid (4′-chloromethyl-4-methoxy-biphenyl-3-ylmethyl)-(4-methylamino-cyclohexyl)-amide hydrochloride]	< 50	< 50	< 50
